Data reported in patent US9045498B2, “Hexahydropyrano[3,4-d][1,3]thiazin-2-amine compounds” (Pfizer Inc., priority 2012, dated 2015).

Assays:
BACE1 enzyme = BACE1 enzyme (Homo sapiens (Human), UniProt P56817); test: BACE1 Cell-Free Assay (fluorescence polarization); type: biochemical; settings: geometric mean of 2-3 determinations; pH 4.5, 3 hours at 37° C.
Source text: This assay measures the inhibition of the beta-secretase enzyme as it cleaves a non-native peptide.
A synthetic APP substrate that can be cleaved by beta-secretase having N-terminal biotin and made fluorescent by the covalent attachment of Oregon Green at the Cys residue is used to assay beta-secretase activity in the presence or absence of the inhibitory compounds. […] The BACE1 enzyme is affinity purified material from conditioned media of CHO-K1 cells that have been transfected with a soluble BACE construct (BACE1deltaTM96His). Compounds are incubated in a ½ log dose response curve from a top concentration of 100 μM with BACE1 enzyme and the biotinylated fluorescent peptide in 384-well black plates (Thermo Scientific #4318). BACE1 is at a final concentration of 0.1 nM with a final concentration of peptide substrate of 150 nM in a reaction volume of 30 μL assay buffer (100 mM sodium acetate, pH 4.5 (brought to pH with acetic acid), and 0.001% Tween-20). Plates are covered and incubated for 3 hours at 37° C. The reaction is stopped with the addition of 30 μL of 1.5 μM Streptavidin (Pierce, #21125). After a 10 minute incubation at room temperature, plates are read on a PerkinElmer EnVision for fluorescence polarization (Ex485 nm/Em530 nm). The activity of the beta-secretase enzyme is detected by changes in the fluorescence polarization that occur when the substrate is cleaved by the enzyme.

BACE2 enzyme = BACE2 enzyme (Homo sapiens (Human), UniProt Q9Y5Z0); test: BACE2 Cell-free Assay (fluorescence polarization); type: biochemical; settings: pH 4.5, 3 hours at 37° C.; number of determinations per footnote a, b, d
Chain of BACE2 enzyme (Q9Y5Z0 63-518): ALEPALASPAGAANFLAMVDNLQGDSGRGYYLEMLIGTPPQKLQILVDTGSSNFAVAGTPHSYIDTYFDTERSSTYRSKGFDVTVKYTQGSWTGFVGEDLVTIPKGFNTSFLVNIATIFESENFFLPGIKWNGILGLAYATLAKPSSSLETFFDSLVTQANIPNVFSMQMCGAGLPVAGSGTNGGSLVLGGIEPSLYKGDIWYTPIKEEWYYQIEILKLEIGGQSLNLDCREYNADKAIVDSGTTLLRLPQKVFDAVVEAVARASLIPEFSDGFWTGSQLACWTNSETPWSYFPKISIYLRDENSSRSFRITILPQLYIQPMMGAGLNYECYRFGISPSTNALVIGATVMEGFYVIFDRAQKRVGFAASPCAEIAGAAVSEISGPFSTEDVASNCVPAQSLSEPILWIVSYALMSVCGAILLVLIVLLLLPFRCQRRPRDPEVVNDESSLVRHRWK
Protocol: This assay measures the inhibition of the BACE2 enzyme as it cleaves a non-native peptide. A synthetic substrate that can be cleaved by BACE2 having N-terminal biotin and made fluorescent by the covalent attachment of Oregon Green at the Cys residue is used to assay BACE2 activity in the presence or absence of the inhibitory compounds. The substrate is Biotin-[…]-C(Oregon green)-KK-OH. The BACE2 enzyme is available from Enzo Life Sciences (Cat # BML-SE550). Compounds are incubated in a ½ log dose response curve from a top concentration of 100 μM with BACE2 enzyme and the biotinylated fluorescent peptide in 384-well black plates (Thermo Scientific #4318). BACE2 is at a final concentration of 2.5 nM with a final concentration of peptide substrate of 150 nM in a reaction volume of 30 μL assay buffer (100 mM sodium acetate, pH 4.5 (brought to pH with acetic acid), and 0.001% Tween-20). Plates are covered and incubated for 3 hours at 37° C. The reaction is stopped with the addition of 30 μL of 1.5 μM Streptavidin (Pierce, #21125). After a 10 minute incubation at room temperature, plates are read on a Perkin Elmer EnVision for fluorescence polarization (Ex485 nm/Em530 nm). The activity of the beta-secretase enzyme is detected by changes in the fluorescence polarization that occur when the substrate is cleaved by the enzyme.

[1] = tested on: sAPPβ levels in H4 human neuroglioma cells over-expressing the wild-type human APP695; test: Whole Cell Assay (In Vitro sAPPb Assay); type: cell-based; settings: 18 hours treatment, geometric mean of 2-3 determinations (4-7 where marked d)
Protocol: Whole Cell Assay (In Vitro sAPPb Assay):
H4 human neuroglioma cells over-expressing the wild-type human APP695 are treated for 18 hours with compound in cell growth media having a final concentration 1% DMSO. sAPPβ levels are measured using either TMB-ELISA or Pierce SuperSignal ELISA Pico Chemiluminescent Substrate (Pierce 37069) with capture APP N-terminal antibody (Affinity BioReagents, OMA1-03132), wild-type sAPPβ specific reporter p192 (Elan), and tertiary anti rabbit-HRP (GE Healthcare).

Chain of BACE1 enzyme (P56817 46-457): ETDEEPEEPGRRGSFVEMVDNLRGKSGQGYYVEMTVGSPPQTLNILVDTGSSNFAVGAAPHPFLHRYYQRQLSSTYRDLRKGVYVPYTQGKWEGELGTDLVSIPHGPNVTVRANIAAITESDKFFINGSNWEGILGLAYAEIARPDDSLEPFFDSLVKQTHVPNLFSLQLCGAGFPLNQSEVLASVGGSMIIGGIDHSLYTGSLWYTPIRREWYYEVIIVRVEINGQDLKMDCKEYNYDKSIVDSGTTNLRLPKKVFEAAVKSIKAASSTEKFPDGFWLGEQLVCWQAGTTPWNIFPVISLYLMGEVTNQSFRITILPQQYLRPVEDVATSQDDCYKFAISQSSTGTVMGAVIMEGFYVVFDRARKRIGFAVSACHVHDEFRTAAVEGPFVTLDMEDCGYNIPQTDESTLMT

SMILES | IC50 (BACE1 enzyme) [nM] | IC50 (BACE2 enzyme) [nM] | IC50 [1] [nM]
Cn1cc([C@H]2C[C@H]3CSC(N)=N[C@@]3(c3cc(CNCC(F)(F)F)ccc3F)CO2)cn1 (relative stereo) [Example 16, rel-(4aR,6R,8aS)-8a-(2-Fluoro-5-{[(2,2,2-trifluoroethyl)amino]methyl}phenyl)-6-(1-methyl-1H-pyrazol-4-yl)-4,4a,5,6,8,8a-hexahydropyrano[3,4-d][1,3]thiazin-2-amine] | 19 | 108 | 1.88
COC[C@@H](C)NCc1ccc(F)c([C@]23CO[C@@H](c4cnn(C)c4)C[C@H]2CSC(N)=N3)c1 (relative stereo) [Example 18, (4aR*,6R*,8aS*)-8a-[2-Fluoro-5-({[(2R)-1-methoxypropan-2-yl]amino}methyl)phenyl]-6-(1-methyl-1H-pyrazol-4-yl)-4,4a,5,6,8,8a-hexahydropyrano[3,4-d][1,3]thiazin-2-amine] | 36 | 20 | 0.545
COc1cc(F)c([C@]23CO[C@@H](COCc4ccccc4)C[C@H]2CSC(N)=N3)cc1C#N [Example 1, 5-[(4aR,6R,8aS)-2-Amino-6-[(benzyloxy)methyl]-4,4a,5,6-tetrahydropyrano[3,4-d][1,3]thiazin-8a(8H)-yl]-4-fluoro-2-methoxybenzonitrile] | 1220 | – | 53.5
N#Cc1cc([C@]23CO[C@@H](COCc4ccccc4)C[C@H]2CSC(N)=N3)c(F)cc1F [Example 2, 5-[(4aR,6R,8aS)-2-Amino-6-[(benzyloxy)methyl]-4,4a,5,6-tetrahydropyrano[3,4-d][1,3]thiazin-8a(8H)-yl]-2,4-difluorobenzonitrile] | 445 | – | 74
N#Cc1cc([C@]23CO[C@@H](CO)C[C@H]2CSC(N)=N3)c(F)cc1F [Example 3, 5-[(4aR,6R,8aS)-2-Amino-6-(hydroxymethyl)-4,4a,5,6-tetrahydropyrano[3,4-d][1,3]thiazin-8a(8H)-yl]-2,4-difluorobenzonitrile] | 5550 | – | 393
N#Cc1cc([C@]23CO[C@@H](CF)C[C@H]2CSC(N)=N3)c(F)cc1F [Example 4, 5-[(4aR,6R,8aS)-2-Amino-6-(fluoromethyl)-4,4a,5,6-tetrahydropyrano[3,4-d][1,3]thiazin-8a(8H)-yl]-2,4-difluorobenzonitrile] | – | 2520 | 93
COC[C@H]1C[C@H]2CSC(N)=N[C@@]2(c2cc(C#N)c(F)cc2F)CO1 [Example 5, 5-[(4aR,6R,8aS)-2-Amino-6-(methoxymethyl)-4,4a,5,6-tetrahydropyrano[3,4-d][1,3]thiazin-8a(8H)-yl]-2,4-difluorobenzonitrile] | – | – | 46.5
C[C@H]1C[C@H]2CSC(N)=N[C@@]2(c2cc(C#N)ccc2Cl)CO1 [Example 6, 3-[(4aR,6S,8aS)-2-Amino-6-methyl-4,4a,5,6-tetrahydropyrano[3,4-d][1,3]thiazin-8a(8H)-yl]-4-chlorobenzonitrile] | 2330 | – | 195
C[C@H]1C[C@H]2CSC(N)=N[C@@]2(c2cccc(C#N)c2)CO1 [Example 7, 3-[(4aR,6S,8aS)-2-Amino-6-methyl-4,4a,5,6-tetrahydropyrano[3,4-d][1,3]thiazin-8a(8H)-yl]benzonitrile] | 1780 | – | 119
NC1=N[C@@]2(c3cc(CNCC(F)(F)F)c(F)cc3F)CO[C@@H](CF)C[C@H]2CS1 [Example 8, (4aR,6R,8aS)-8a-(2,4-Difluoro-5-{[(2,2,2-trifluoroethyl)amino]methyl}phenyl)-6-(fluoromethyl)-4,4a,5,6,8,8a-hexahydropyrano[3,4-d][1,3]thiazin-2-amine] | – | – | 5.9
C[C@H]1C[C@H]2CSC(N)=N[C@@]2(c2cc(CNCC(F)(F)F)c(F)cc2F)CO1 [Example 9, (4aR,6S,8aS)-8a-(2,4-Difluoro-5-{[(2,2,2-trifluoroethyl)amino]methyl}phenyl)-6-methyl-4,4a,5,6,8,8a-hexahydropyrano[3,4-d][1,3]thiazin-2-amine] | 76 | – | 8.94
Cc1cc([C@H]2C[C@H]3CSC(N)=N[C@@]3(c3cc(C#N)ccc3F)CO2)on1 [Example 10, 3-[(4aR,6R,8aS)-2-Amino-6-(3-methyl-1,2-oxazol-5-yl)-4,4a,5,6-tetrahydropyrano[3,4-d][1,3]thiazin-8a(8H)-yl]-4-fluorobenzonitrile] | 64 | – | 10.9
Cc1coc([C@H]2C[C@H]3CSC(N)=N[C@@]3(c3cc(C#N)ccc3F)CO2)n1 [Example 11, 3-[(4aR,6R,8aS)-2-Amino-6-(4-methyl-1,3-oxazol-2-yl)-4,4a,5,6-tetrahydropyrano[3,4-d][1,3]thiazin-8a(8H)-yl]-4-fluorobenzonitrile] | 107 | – | 12.1
Cn1cc([C@H]2C[C@H]3CSC(N)=N[C@@]3(c3cc(C#N)ccc3F)CO2)cn1 [Example 12, 3-[(4aR,6R,8aS)-2-Amino-6-(1-methyl-1H-pyrazol-4-yl)-4,4a,5,6-tetrahydropyrano[3,4-d][1,3]thiazin-8a(8H)-yl]-4-fluorobenzonitrile] | 60 | – | 6.43
N#Cc1ccc(F)c([C@]23CO[C@@H](C4CC4)C[C@H]2CSC(N)=N3)c1 [Example 13, 3-[(4aR,6R,8aS)-2-Amino-6-cyclopropyl-4,4a,5,6-tetrahydropyrano[3,4-d][1,3]thiazin-8a(8H)-yl]-4-fluorobenzonitrile] | 342 | – | 47.6
C[C@H]1C[C@H]2CSC(N)=N[C@@]2(c2cc(C#N)ccc2F)CO1 [Example 14, 3-[(4aR,6S,8aS)-2-Amino-6-methyl-4,4a,5,6-tetrahydropyrano[3,4-d][1,3]thiazin-8a(8H)-yl]-4-fluorobenzonitrile] | 967 | – | 49.6
NC1=N[C@@]2(c3cc(CNCC(F)(F)F)ccc3F)CO[C@@H](CF)C[C@H]2CS1 [Example 15, (4aR,6R,8aS)-6-(Fluoromethyl)-8a-(2-fluoro-5-{[(2,2,2-trifluoroethyl)amino]methyl}phenyl)-4,4a,5,6,8,8a-hexahydropyrano[3,4-d][1,3]thiazin-2-amine] | 376 | 423 | 8.05
Cc1cc([C@H]2C[C@H]3[C@@H](C)SC(N)=N[C@@]3(c3cc(C#N)ccc3F)CO2)on1 [Example 17, 3-[(4R,4aR,6R,8aS)-2-Amino-4-methyl-6-(3-methyl-1,2-oxazol-5-yl)-4,4a,5,6-tetrahydropyrano[3,4-d][1,3]thiazin-8a(8H)-yl]-4-fluorobenzonitrile] | 82 | – | 11.4
C[C@H]1C[C@H]2[C@@H](CF)SC(N)=N[C@@]2(c2cc(CNCC(F)(F)F)ccc2F)CO1 [Example 19, (4S,4aR,6S,8aS)-4-(Fluoromethyl)-8a-(2-fluoro-5-{[(2,2,2-trifluoroethyl)amino]methyl}phenyl)-6-methyl-4,4a,5,6,8,8a-hexahydropyrano[3,4-d][1,3]thiazin-2-amine] | 150 | – | 30.4
C[C@H]1C[C@H]2[C@@H](CF)SC(N)=N[C@@]2(c2cc(CNCC(F)(F)F)c(F)cc2F)CO1 [Example 20, (4S,4aR,6S,8aS)-8a-(2,4-Difluoro-5-{[(2,2,2-trifluoroethyl)amino]methyl}phenyl)-4-(fluoromethyl)-6-methyl-4,4a,5,6,8,8a-hexahydropyrano[3,4-d][1,3]thiazin-2-amine] | 68 | – | 35.7
